According to US20230149507A1, “TREATMENT OF ALT CANCERS” (INSTITUTO DE MEDICINA MOLECULAR JOÃO LOBO ANTUNES, priority 2019, published 2023):

Assays:
U-2 OS cells [1] = test: Fragile telomeres in cells overexpressing FANCM variants; assay type: cell-based, human; details: stable overexpression
From the text: (§1) (a) Schematic of FANCM domain interactions, mutations or deletions. For clarity, domains have been color coded by functional role (bottom panel). (b) Quantitation of metaphase-TIFs in U-2 OS cells stably overexpressing wild-type (FANCM+) or FANCM mutants. Scatterplot bars represent the mean±SEM. Out of 3 experiments, n≥110 metaphases scored for each mutant, *p<0.05, **p<0.005, Mann-Whitney test. (c) Quantitation of fragile telomeres in U-2 OS cells stably overexpressing wild-type (FANCM+) or FANCM mutants. Scatterplot bars represent the mean±SEM. Out of 3 experiments, n>100 metaphases scored for each mutant, *p<0.05, **p<0.005, Mann-Whitney test. (d) Representative dot blots and quantitation of C-circle assays in U-2 OS cells stably overexpressing wild-type (FANCM+) or FANCM domain mutants. C-circles were normalized to the mean of vector control. Error bars represent mean±SEM from n=3 experiments, *p<0.05, **p<0.005, Student's t-test. (e) Single molecule analysis of telomeric extension events (top panel) and length of extension events (bottom panel) in U-2 OS cells stably overexpressing wild-type (FANCM+) or FANCM domain mutants. Error bars represent mean±SEM of n≥350 fibers out of 3 experiments, *p<0.05, **p<0.005, Student's t-test.
(§2) Empty vector and wild-type FANCM (pCMV6-Myc-DDK) constructs were obtained from Origene Technologies. Wild type FANCM (SEQ ID NO: 2) and FANCM mutants (SEQ ID NOs: 19 to 28) were cloned into the pLenti-C-Myc-DDK-IRES-Neo backbone (Origene Technologies) by restriction enzyme subcloning of gene blocks synthesized by Integrated DNA Technologies (IDT). Lentivirus was produced by the Vector and Genome Engineering Facility (Children's Medical Research Institute). For stable overexpression, cells were transduced with lentivirus, allowed to recover for 24 h, and subject to G418 selection. Cells were maintained in G418 to ensure sustained overexpression.
(§3) Indirect IF and telomere FISH were performed on both interphase nuclei and metaphase spreads. For interphase IF experiments, cells were grown on coverslips or LabTek chamber slides (Thermo Scientific). Slides were prepared as described in Sobinoff et al., 2017. Cells on coverslips were washed twice with PBS, permeabilized with KCM buffer (120 mM KCl, 20 mM NaCl, 10 mM Tris pH 7.5, 0.1% Triton), washed again with PBST and PBS, then fixed with ice-cold 4% formaldehyde PBS solution at room temperature for 10 min. Coverslips were blocked with antibody-dilution buffer (20 mM Tris-HCl, pH 7.5, 2% (w/v) BSA, 0.2% (v/v) fish gelatin, 150 mM NaCl, 0.1% (v/v) Triton X-100 and 0.1% (w/v) sodium azide) and 0.1 mg/ml RNaseA for 30 min at 37° C. […]

U-2 OS cells [2] = test: Metaphase-TIFs in cells overexpressing FANCM variants; assay type: cell-based, human; details: stable overexpression
From the text: as §1
FIG. 23. Defects in ALT phenotype suppression are exacerbated by overexpression of a double-mutant (DM) FANCM, in which both the MM2 domain (FF>AA) and the translocase domain (K117R) of FANCM are mutated. (a) Representative dot blots and quantitation of C-circle assays in U-2 OS cells stably overexpressing wild-type (WT) or FANCM domain mutants (K117R, FF>AA; DM). C-circles were normalized to the mean of empty vector control (EV). Error bars represent mean±SEM from n=3 experiments, *p<0.05, **p<0.005, Student's t-test. (b) Quantitation of APB frequency in U-2 OS cells overexpressing wild-type (WT) or FANCM mutants. Scatterplot bars represent the mean±SEM. Out of three experiments, n=150 cells were scored for each mutant, **p<0.005, Mann-Whitney test. (c) Quantitation of metaphase-TIFs in U-2 OS cells stably overexpressing wild-type (WT) or FANCM mutants. Scatterplot bars represent the mean±SEM. Out of three experiments, n=120 metaphases scored for each mutant, *p<0.05, **p<0.005, Mann-Whitney test. All statistical comparisons are relative to EV control.
as §2
as §3, with “min.” for “min. Coverslips were blocked with antibody-dilution buffer (20 mM Tris-HCl, pH 7.5, 2% (w/v) BSA, 0.2% (v/v) fish gelatin, 150 mM NaCl, 0.1% (v/v) Triton X-100 and 0.1% (w/v) sodium azide) and 0.1 mg/ml RNaseA for 30 min at 37° C.”

| Substance | number of fragile telomeres (telomere fragility) (U-2 OS cells [1]) | telomere dysfunction (metaphase-TIFs) (U-2 OS cells [2]) |
| --- | --- | --- |
| FF>AA: FANCM mutant (SEQ ID NO: 25), double substitution F1232A/F1236A within the MM2 domain | significantly increased | significantly increased |
| K117R: FANCM mutant (SEQ ID NO: 20) substituted at K117R, DEAH domain disrupted | failed to suppress the phenotypes | failed to suppress the phenotypes |
